For one data set, the system named is P388 tumor cells. As to the kind of experiment: In vivo P388 tumor life span test in CDF1 mice. The note with it: days 1, 5, 9, CDF1 mice with P388. The method, then: Vitilevuamide was also screened for in vivo activity by injecting CDF1 mice intraperitoneally on day 0 with 1×10^6 P388 tumor cells. Five animals were randomly assigned to a group. On days 1, 5, and 9 after tumor implantation, these mice were treated intraperitoneally with either a placebo or the drug. Animals were checked twice daily, and the day of death of each mouse was recorded. A positive drug response is defined as a greater than 25% increase in the mean life span (% ILS) relative to the placebo control.

The next data set has as its system C6 rat glioma cells. Put plainly: Tubulin inhibition assay (db-cAMP rounding, MTT readout). The format is cell-based. The note with it: 4 h treatment then 1 mM db-cAMP, colchicine 25 μg/mL positive control. The method, then:
C6 rat glioma cells (ATCC CCL107) were seeded into the wells of a microtiter plate and then incubated for 1 day. The cells were then treated with a range of vitilevuamide concentrations, normally 5 orders of magnitude, and incubated for 4 additional hours. The cells were then treated for 1 hour with 1 mM dibuteryl-cAMP (db-cAMP), which causes the C6 cells to assume a spherical morphology ("rounding") within 60 minutes due to polymerization of tubulin. Cells that are exposed to tubulin-active compounds, on the other hand, display a different morphological change--flattening and adherence to the substrate. All of the wells were then jet aspirated, and the wells were resupplied with fresh medium containing MTT. The glioma cells metabolize MTT to a dark formazan dye. P. R. Twentyman & M. Luscombe, 56 Br. J. Cancer 279 (1987); F. Denizot & R. Lang, 89 J. Immunol. Methods 271 (1986). Following 4 hours of incubation, absorbance was measured at 450 nm. Colchicine (25 μg/mL) was used as the positive control.

Another data set concerns A498 cells. The note with it: MTT assay. On the procedure:
(§1) Vitilevuamide prepared according to the procedure of Example 1 or Example 2 was tested against a panel of human tumor cell lines: (a) a colon cancer cell line, HCT 116 (obtained from ATCC), M. Brattain, 41 Cancer Res. 1751 (1986); (b) an adenocarcinoma cell line, A549, D. J. Giard, 51 J. Nat'l Cancer Inst. 1417 (1973); (c) a malignant melanoma cell line, SK-MEL-5, H. F Oteggen, 41 J. Nat'l Cancer Inst. 827 (1968); and (d) a kidney carcinoma cell line, A498, S. Aaronson, 51 J. Nat'l Cancer Inst. 1417 (1973). Cells were cultured according to the procedure of M. C. Alley et al., 48 Cancer Res. 589 (1988), hereby incorporated by reference.
(§2) Screening was performed in a 96-well microtiter plate by the standard 3-[4,5-dimethylthiazol-2-yl]-[…] bromide; thiazolyl blue (MTT) cell inhibition assay adopted for anticancer drug screening at NIH. J. Carmichael et al., 47 Cancer Res. 936 (1987), hereby incorporated by reference. Positive controls were run simultaneously.
In general terms: Formazan colour is commonly taken as a measure of viable cells.

The subject of the next data set is SK-MEL-5 cells. The note with it: MTT assay. On the procedure: as §1, §2
For another data set, the system named is HCT 116 cells. The note with it: MTT assay. The method, then:
as §1, §2

The subject of another data set is A549 cells. As to conditions: MTT assay. On the procedure: as §1, §2

Structures are written as SMILES.

As for `C=C1NC(=O)[C@H]([C@@H](C)CC)NC(=O)C2CSCC(NC(=O)CCC(=O)O)C(=O)N[C@H](Cc3ccccc3)C(=O)N[C@H](C)C(=O)NC(CC(C)CC)C(=O)N[C@@H](C(=O)N[C@H](Cc3ccccc3)C(=O)N3CCC[C@H]3C(=O)N2)[C@@H](C)OC(=O)[C@H](CO)NC(=O)C(C(O)COC)N(C)C(=O)[C@@H](C(C)C)NC(=O)C(CC(C)CC)NC1=O` (stereo partly drawn) [vitilevuamide], the “% ILS (increase in mean life span relative to placebo)” value in the data set with P388 tumor cells (0.006 mg/kg/dose i.p.) is listed as 8%; with P388 tumor cells (0.012 mg/kg/dose i.p.), 20%; with P388 tumor cells (0.03 mg/kg/dose i.p.), 70%; in the data set with P388 tumor cells (0.06 mg/kg/dose i.p.), -13%; in the data set with P388 tumor cells (0.13 mg/kg/dose i.p.) it was -45%. For the same compound, the “toxicity remark at dose” value with P388 tumor cells (0.06 mg/kg/dose i.p.) and in the data set with P388 tumor cells (0.13 mg/kg/dose i.p.) was “toxic” each time. Moreover, in the data set on C6 rat glioma cells, the “concentration showing the same effect as colchicine” value is 4 µg/mL. Also, the “50% inhibitory concentration (IC50)” value in the data set on A498 cells was found to be 5 µg/mL; in the data set on SK-MEL-5 cells it was 0.5 µg/mL; in the data set with HCT 116 cells, 0.01 µg/mL; in the data set with A549 cells, 0.2 µg/mL.

Source of the values: patent publication US5830996A, “Cyclic peptide antitumor agent from an ascidian” (University of Utah Research Foundation, priority 1996, dated 1998).
